Experimental data from patent US20020137929A1, “1 - (3-heterocyclylphenyl) isothiourea, -isourea, -guanidine and -amidine herbicidal agents” (Intellectual Property Department, BASF Aktiengesellschaft, priority 1998, published 2002).

Columns and labels:
[1] = tested on: AMBEL (Ragweed, Common); test: Postemergence herbicidal evaluation; format: in vivo, Ambrosia artemisifolia; details: postemergence
Outline: (§1)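 Scores (0–9) reflect plant stand, vigor, malformation, size, chlorosis and general appearance relative to control, read 4 to 5 weeks after treatment and averaged where tests were repeated. Application: about 0.0156–0.500 kg/ha sprayed at 40 psi onto two-week seedlings.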

[2] = tested on: MOOVA (Monochoria); test: Preemergence weed control under flooded paddy conditions; format: in vivo, Monochoria vaginalis; details: rated 3-4 weeks after treatment
Outline: (§2)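 Seeds or propagules sown in silt loam kept flooded 1.5-3 cm; compounds in 50/50 acetone/water pipetted into flood water at about 0.0313 to 0.500 kg/ha. Greenhouse; visual 0-9 rating versus untreated control 3-4 weeks after treatment.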

[3] = tested on: ORYSAT (Rice, Tebonnet); test: Preemergence herbicidal evaluation; format: in vivo, Oryza sativa, (L.) Tebonnet; details: rated 4-5 weeks after treatment
Outline: (§3)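 Sown cups got a single aqueous acetone spray of test compound (roughly 0.0156–0.500 kg/ha) before seedlings emerged. Evaluation, 4–5 weeks on, used a 0–9 visual scale covering plant stand, vigor, size, malformation, chlorosis and general appearance compared with controls.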

[4] = tested on: SAGPY (Arrowhead (Pygmaea)); test: Preemergence weed control under flooded paddy conditions; format: in vivo, Sagittaria pygmaea; details: rated 3-4 weeks after treatment
Outline: as §2

[5] = tested on: CYPIR (Rice Flatsedge); test: as above; format: in vivo, Cyperus iria; details: rated 3-4 weeks after treatment
Outline: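 Ratings on a 0-9 visual scale cover stand, vigor, malformation, size, chlorosis and overall appearance relative to a control, taken three to four weeks post-treatment. Application was into flood water over freshly sown silt loam at roughly 0.0313 to 0.500 kg/ha.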

[6] = tested on: CASOB (Sicklepod); test: Preemergence herbicidal evaluation; format: in vivo, Cassia obtusifolia; details: rated 4-5 weeks after treatment
Outline: as §3

[7] = tested on: ABUTH (Velvetleaf); test: Preemergence herbicidal evaluation; format: in vivo, Abutilon theophrasti; details: rated 4-5 weeks after treatment
Outline: as §3

[8] = tested on: ABUTH (Velvetleaf); test: Postemergence herbicidal evaluation; format: in vivo, Abutilon theophrasti; details: postemergence
Outline: as §1

[9] = tested on: CHEAL (Lambsquarters, Common); test: Postemergence herbicidal evaluation; format: in vivo, Chenopodium album; details: postemergence
Outline: as §1

[10] = tested on: GALAP (Galium); test: Postemergence herbicidal evaluation; format: in vivo, Galium aparine; details: postemergence
Outline: as §1

[11] = tested on: SETVI (Foxtail, Green); test: Postemergence herbicidal evaluation; format: in vivo, Setaria viridis; details: postemergence
Outline: as §1

[12] = tested on: ORYSAT (Rice, Tebonnet); test: Postemergence herbicidal evaluation; format: in vivo, Oryza sativa, (L.) Tebonnet; details: postemergence
Outline: as §1

[13] = tested on: ECHCG (Barnyardgrass); test: Postemergence herbicidal evaluation; format: in vivo, Echinochloa crus-galli; details: postemergence
Outline: as §1

[14] = tested on: TRZAWR (Wheat, Winter, cv Riband); test: Preemergence herbicidal evaluation; format: in vivo, Triticum aestivum; details: rated 4-5 weeks after treatment
Outline: as §3

## CC1SC(=Nc2cc(N3C(=O)C4=C(CCCC4)C3=O)c(F)cc2Cl)N(C)C1=O (stereo not shown) [Compound 4]
[1]; rate 0.0313 kg/ha
  AMBEL herbicidal rating: 0.0
[1]; rate 0.0625 kg/ha
  AMBEL herbicidal rating: 0.0
[1]; rate 0.1250 kg/ha
  AMBEL herbicidal rating: 2.0
[1]; rate 0.2500 kg/ha
  AMBEL herbicidal rating: 6.0
[1]; rate 0.5000 kg/ha
  AMBEL herbicidal rating: 6.0
[2]; 0.0313 kg/ha
  Herbicidal rating MOOVA: 2.0
[2]; 0.0625 kg/ha
  Herbicidal rating MOOVA: 7.0
[2]; 0.1250 kg/ha
  Herbicidal rating MOOVA: 8.0
[2]; 0.2500 kg/ha
  Herbicidal rating MOOVA: 9.0
[2]; 0.5000 kg/ha
  Herbicidal rating MOOVA: 9.0
[3]; rate 0.1250 kg/ha
  ORYSAT preemergence herbicidal rating: 0.0
[3]; rate 0.2500 kg/ha
  ORYSAT preemergence herbicidal rating: 2.0
[3]; rate 0.5000 kg/ha
  ORYSAT preemergence herbicidal rating: 4.0
[4]; 0.0313 kg/ha
  Herbicidal rating SAGPY: 0.0
[4]; 0.0625 kg/ha
  Herbicidal rating SAGPY: 0.0
[4]; 0.1250 kg/ha
  Herbicidal rating SAGPY: 0.0
[4]; 0.2500 kg/ha
  Herbicidal rating SAGPY: 0.0
[4]; 0.5000 kg/ha
  Herbicidal rating SAGPY: 0.0
[5]; 0.0313 kg/ha
  Herbicidal rating CYPIR: 0.0
[5]; 0.0625 kg/ha
  Herbicidal rating CYPIR: 4.0
[5]; 0.1250 kg/ha
  Herbicidal rating CYPIR: 8.0
[5]; 0.2500 kg/ha
  Herbicidal rating CYPIR: 9.0
[5]; 0.5000 kg/ha
  Herbicidal rating CYPIR: 9.0
[6]; rate 0.1250 kg/ha
  CASOB preemergence herbicidal rating: 0.0
[6]; rate 0.2500 kg/ha
  CASOB preemergence herbicidal rating: 2.0
[6]; rate 0.5000 kg/ha
  CASOB preemergence herbicidal rating: 7.0
[7]; rate 0.1250 kg/ha
  ABUTH preemergence herbicidal rating: 0.0
[7]; rate 0.2500 kg/ha
  ABUTH preemergence herbicidal rating: 2.0
[7]; rate 0.5000 kg/ha
  ABUTH preemergence herbicidal rating: 8.0
[8]; rate 0.0313 kg/ha
  ABUTH herbicidal rating: 2.0
[8]; rate 0.0625 kg/ha
  ABUTH herbicidal rating: 4.0
[8]; rate 0.1250 kg/ha
  ABUTH herbicidal rating: 9.0
[8]; rate 0.2500 kg/ha
  ABUTH herbicidal rating: 9.0
[8]; rate 0.5000 kg/ha
  ABUTH herbicidal rating: 9.0
[9]; rate 0.0313 kg/ha
  CHEAL herbicidal rating: 2.0
[9]; rate 0.0625 kg/ha
  CHEAL herbicidal rating: 6.0
[9]; rate 0.1250 kg/ha
  CHEAL herbicidal rating: 8.0
[9]; rate 0.2500 kg/ha
  CHEAL herbicidal rating: 4.0
[9]; rate 0.5000 kg/ha
  CHEAL herbicidal rating: 4.0
[10]; rate 0.0313 kg/ha
  GALAP herbicidal rating: 0.0
[10]; rate 0.0625 kg/ha
  GALAP herbicidal rating: 2.0
[10]; rate 0.1250 kg/ha
  GALAP herbicidal rating: 2.0
[10]; rate 0.5000 kg/ha
  GALAP herbicidal rating: 6.0
[11]; rate 0.0313 kg/ha
  SETVI herbicidal rating: 0.0
[11]; rate 0.0625 kg/ha
  SETVI herbicidal rating: 2.0
[11]; rate 0.1250 kg/ha
  SETVI herbicidal rating: 0.0
[11]; rate 0.2500 kg/ha
  SETVI herbicidal rating: 2.0
[11]; rate 0.5000 kg/ha
  SETVI herbicidal rating: 8.0
[12]; rate 0.0313 kg/ha
  ORYSAT herbicidal rating: 1.0
[12]; rate 0.0625 kg/ha
  ORYSAT herbicidal rating: 1.0
[12]; rate 0.1250 kg/ha
  ORYSAT herbicidal rating: 2.5
[12]; rate 0.2500 kg/ha
  ORYSAT herbicidal rating: 1.5
[12]; rate 0.5000 kg/ha
  ORYSAT herbicidal rating: 3.0
[13]; rate 0.0313 kg/ha
  ECHCG herbicidal rating: 0.0
[13]; rate 0.0625 kg/ha
  ECHCG herbicidal rating: 0.0
[13]; rate 0.1250 kg/ha
  ECHCG herbicidal rating: 0.0
[13]; rate 0.2500 kg/ha
  ECHCG herbicidal rating: 4.0
[13]; rate 0.5000 kg/ha
  ECHCG herbicidal rating: 2.0
[14]; rate 0.1250 kg/ha
  TRZAWR preemergence herbicidal rating: 2.0
[14]; rate 0.2500 kg/ha
  TRZAWR preemergence herbicidal rating: 3.0
[14]; rate 0.5000 kg/ha
  TRZAWR preemergence herbicidal rating: 3.0
